Laboratory results as given in ChEMBL document CHEMBL1159015, “Isolation of the bioactive terpene 7-deacetoxy-olepupuane from the temperate marine sponge Dysidea sp” (J Nat Prod, 1992).
In brackets after ≈: the same amount, converted by molar mass.

Test system: P388
Test: Cytotoxicity against mouse P388 cells
Format: functional, cell-based

## CC(=O)O[C@@H]1OC=C2CC[C@H]3C(C)(C)CCC[C@]3(C)[C@H]21
  IC50: 16.4 µg/mL (≈ 58.9 µM)
